Reference: US8268755B2, “Oxime ether derivative and fungicide for agricultural and horticultural use” (Nippon Soda Co., Ltd., priority 2007, dated 2012)

- melting point: 100 to 101 °C
SMILES: COC(=O)NOc1cc(/C(C)=N/OCc2cccc(C(F)(F)F)n2)ccc1Cl [Compound 1446, methyl N-(2-chloro-5-{1-[6-trifluoromethylpyridin-2-ylmethoxyimino]ethyl}phenoxy) carbamate]
